In article PMC10301603, “Potent and Selective Benzothiazole-Based Antimitotics with Improved Water Solubility: Design, Synthesis, and Evaluation as Novel Anticancer Agents” (Pharmaceutics, 2023):
Converted amounts (≈) assume the structure as drawn.

Key:
[1] = Aqueous solubility, shake-flask method; format: physicochemical; details: shaking flask, buffered media at pH 7.0, mean of three
In short: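 Shake-flask: 5 mg compound in 500 µL pH 7.0 buffer stirred 72 h at room temperature, then filtered to remove insoluble material. Saturated filtrate quantified by UV absorbance at λmax against a per-compound calibration line; value is the mean of three independent measurements.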

tumor cell lines = assay: Cell growth inhibition assay (MTT), summary statements over several cell lines; format: cell-based; details: glioblastoma cell lines; read-out: antiproliferative IC50
Protocol: Cells were plated in 96-well plates (100 µL/well) at the following concentrations: 30,000 cells/mL (HepG2, U87 MG, T98G, C6, LNCaP, PC3, and HT-29 cells) or 15,000 cells/mL (HeLa and MCF-7 cells). Previous experiments were performed to choose the optimal cell concentration (70–80% confluence) and avoid the formation of cell aggregates. Cells were incubated in complete DMEM or RPMI 1640 medium (see above) at 37 °C and 5% CO2 atmosphere for 24 h to allow for cell attachment to the plate. Then, every compound was added (10 µL/well) to a final concentration of 10 µM. Non-treated cells were used as negative controls. The antiproliferative activity of compounds was measured 72 h after the treatments using the MTT reagent (3-[4,5-dimethylthiazol-2-yl]-2,5-diphenyltetrazolium bromide), (MTT Thiazolyl Blue Tetrazolium Bromide, Sigma-Aldrich, St. Louis, MO, USA) dissolved in PBS at 5 mg/mL. Compounds showing antiproliferative effects at 10 µM were selected to determine their IC50 value. For that purpose, compounds were used at different concentrations ranging from 10^−10 to 10^−2 M. Measurements were performed in triplicate, and each experiment was repeated three times. The IC50 value was determined for every compound using Origin software (OriginLab, Washington, USA). To study the sensitivity to MDR efflux pumps of compounds, the IC50 values were determined by following the same procedure but in the presence of verapamil (final concentration of 10 µM).

Compound	solubility at 72 h ([1]; pH 7.0 buffer, pH 7, aqueous buffer, thermodynamic from solid) [µg/mL]	IC50 (tumor cell lines) [nM]	Solubility [1] [µg/mL]
COc1ccc2nc(N(C=O)Cc3cccnc3)sc2c1 [Compound 14, N-(6-methoxybenzo[d]thiazol-2-yl)-N-(pyridin-3-ylmethyl)formamide]	95 (≈ 317 µM)	37 to 75	–
CCNC(=O)N(Cc1cccnc1)c1nc2ccc(OC)cc2s1 [Compound 8]	–	–	102 (≈ 298 µM)
